Read-outs that look alike come from different tables or passages of the source.
Columns and labels:
PD-1/PD-L1 interaction = molecular target: T1, PD-1/PD-L1 interaction (Homo sapiens, UniProt Q9NZQ7); assay: PD-1/PD-L1 HTRF assay; assay type: biochemical; conditions: read-out: IC50, anti-PD-1/PD-L1 potency
T1 construct: purchased Cisbio 64ICP01PEG&64ICP01PEH

[1] = test system: CXCL12-mediated Ca2+ cellular responses in THP-1 cells; assay: Calcium flux assay in THP-1 cells; assay type: cell-based; conditions: spectrofluorometry
Method: Calcium flux assays. THP-1 cells were incubated with Fluo-4AM (Invitrogen, catalog number: F14201) calcium-dependent fluorophore for 0.5 h, washed and resuspended. […] Ca^2+ flux was measured (Ex = 488 nm; Em = 520 nm).

[2] = Serum biochemistry for liver and kidney function; assay type: in vivo, mouse; conditions: mice
human CXCL12 = molecular target: T2, human CXCL12 (Homo sapiens, UniProt P48061); assay: SPR binding to hCXCL12
T2 construct: purchased Sino Biological Biotics Inc 13511-HNCE-2
T2 sequence (P48061 22-93): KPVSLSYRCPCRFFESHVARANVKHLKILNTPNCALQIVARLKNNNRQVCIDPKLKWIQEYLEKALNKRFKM
Method: (§1) SPR, ITC, CD assay. […] SPRi assay was carried out using PlexAray HT.

[3] = H&E staining of mice organs; assay type: in vivo, mouse
[4] = test system: CXCL12-mediated cell migration, THP-1 cells; assay: Transwell chemotaxis test in THP-1 cells; assay type: cell-based
[5] = test system: CT-26 colon syngeneic tumor; assay: In vivo efficacy in CT-26 colon syngeneic tumor model; set-up: species or system mouse; conditions: 75 mg/kg for 17 days
Description: (§2) In vivo efficacy study in a melanoma model and CT26 tumor model. Protocols for animal experiments (B16-F10 and CT-26 tumor model) were approved by the NIACEC (National Institutional Animal Care & Ethical Committee) at SMU (Southern Medical University). C57BL/6 male mice (6-8 weeks old) were purchased from Liaoning Changsheng Biosciences. Briefly, A total of 2×10^5 B16-F10 melanoma cells or CT26 cells (1×10^6) were inoculated into mouse (in the right flank) according to protocols of tumor transplantation studies in mice. […] Tumor volume was measured with a traceable electronic digital caliper (every 2 days).
Figure. […] Then, sacrificed and tumors weights and volumes were measured. (A) Images of tumors and weight of tumors; (B) changes of body weights of mice during treatment; (C) Individual tumor growth curves over time (D) changes of tumor volume during treatment. *P < 0.05, **P < 0.01, and ****P < 0.0001 (n=3).

B16-F10 melanoma tumors = assay: In vivo efficacy in B16-F10 melanoma model; conditions: mouse B16-F10 model
Description: as §2

[6] = Creatine kinase isoenzyme assay; assay type: in vivo, mouse; conditions: mice
[7] = Pharmacokinetic study in male SD rats; assay type: in vivo, rat; conditions: for MRT last: read-out: MRT(0–t); for MRT inf: read-out: MRT(0–∞)
Method: Pharmacokinetic Study in Male SD Rats. Male SD rats (300–360 g) were purchased from Liaoning Changsheng Biotechnology Co., Ltd. Diet. […] The mobile phase consisted of a mixture of solvent A (acetonitrile) and solvent B (formic acid/ ultrapure water, 1:1000, v/v). The linear gradient program for the mobile phase was set as follows: 0 min 10% A; 0.5 min 30% A; 1 min 95% A; 2 min 95% A; 2.3 min 10% A. The flow rate of the mobile phase was 0.4 mL/min, and the injection volume was 2 μL. The XEVO TQD triple quadrupole mass spectrometer was equipped with an electrospray ionization (ESI) source; multiple reaction monitoring (MRM) mode was selected for quantitation. The Mass Lynx 4.1 software (Waters Corp.) was used for data acquisition. Mass spectral data were obtained in positive electrospray mode (ESI+) in MRM mode.

murine CXCL12 = molecular target: T3, murine CXCL12 (Mus musculus, UniProt P40224); assay: SPR binding to mCXCL12
T3 construct: purchased Sino Biological Biotics Inc 50025-MNAE-2
T3 sequence (P40224 22-93): as the sequence (P48061 22-93) above, with V18I, F70L counted along it
Method: as §1

[8] = test system: HepG2 cells co-cultured with Jurkat T cells; assay: HepG2 cell mortality in Jurkat T & HepG2 co-culture model; assay type: cell-based; conditions: CCK-8
Method: Assessment of HepG2 cell mortality rate (Cellular). Firstly, HepG2 cells were stimulated with human IFN-γ (Peprotech, catalog number: 300-02) to express hPD-L1 stably. Jurkat T cells were stimulated with PHA-P (Invivogen, catalog number: inh-phap). Then, HepG2 (5×10^4) and Jurkat T cells (5×10^4) were added to the co-cultured model. […] Finally, the Jurkat T cells were completely removed by washing the supernatant (200 μL) with cold PBS for 4 times. The mortality rate of HepG2 cells was determined by CCK-8 assay (Dojindo, CCK8, 500 test).

[9] = rat, plasma, iv, I.V. 1 mg/kg, mean ± SD
[10] = rat, plasma, po, P.O. 18 mg/kg, mean ± SD

T1 sequence (Q9NZQ7 19-238 limits assumed): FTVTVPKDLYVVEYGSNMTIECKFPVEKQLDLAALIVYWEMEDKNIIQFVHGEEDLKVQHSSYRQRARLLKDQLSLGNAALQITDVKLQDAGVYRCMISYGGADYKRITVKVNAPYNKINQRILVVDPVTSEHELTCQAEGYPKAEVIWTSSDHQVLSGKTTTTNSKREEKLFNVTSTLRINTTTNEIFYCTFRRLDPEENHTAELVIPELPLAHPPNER

## COc1ccc(C(=O)/C=C/c2ccc(OCc3ccc(CNC(=O)CCNC(=O)C4CCCCN4Cc4cc(Cl)c(OCc5cccc(-c6ccccc6)c5C)cc4OCc4cccc(C#N)c4)cc3)c(OC)c2)cc1 (centres unmarked) [CP20]
PD-1/PD-L1 interaction
  IC50: 88.5 nM

## CCOC(=O)COc1cc(OCc2cccc(-c3ccccc3)c2C)c(Cl)cc1CN1CCCCC1C(=O)N1CCC(C(=O)NCc2ccc(COc3ccc(/C=C/C(=O)c4ccc(OC)cc4)cc3OC)cc2)CC1 (centres unmarked) [CP15]
PD-1/PD-L1 interaction
  IC50: > 1000 nM

## COc1ccc(C(=O)/C=C/c2ccc(OCc3ccc(CNC(=O)C4CCCCN4Cc4cc(Cl)c(OCc5cccc(-c6ccccc6)c5C)cc4OCc4cccc(C#N)c4)cc3)c(OC)c2)cc1 (centres unmarked) [CP17]
other
  melting point: 128.1 to 128.9 °C
PD-1/PD-L1 interaction
  IC50: 126 nM

## COc1ccc(C(=O)/C=C/c2ccc(OCc3ccc(CNC(=O)CCCNC(=O)C(C)(C)NCc4cc(Cl)c(OCc5cccc(-c6ccccc6)c5C)cc4OCc4cccc(C#N)c4)cc3)c(OC)c2)cc1 [CP9]
PD-1/PD-L1 interaction
  IC50: 101 nM

## COc1ccc(C(=O)/C=C/c2ccc(OCc3ccc(CNC(=O)CCCCNC(=O)C4CCCCN4Cc4cc(Cl)c(OCc5cccc(-c6ccccc6)c5C)cc4OCc4cccc(C#N)c4)cc3)c(OC)c2)cc1 (centres unmarked) [CP19]
PD-1/PD-L1 interaction
  IC50: > 1000 nM

## COc1ccc(C(=O)/C=C/c2ccc(OCc3ccc(CNC(=O)C4CCN(C(=O)C5CCCCN5Cc5ccc(OCc6cccc(-c7ccccc7)c6C)c(Br)c5)CC4)cc3)c(OC)c2)cc1 (centres unmarked) [CP3]
PD-1/PD-L1 interaction
  IC50: > 1000 nM

## CCOC(=O)COc1cc(OCc2cccc(-c3ccccc3)c2C)c(Cl)cc1CN1CCCCC1C(=O)NCc1ccc(COc2ccc(/C=C/C(=O)c3ccc(OC)cc3)cc2OC)cc1 (centres unmarked) [CP14]
PD-1/PD-L1 interaction
  IC50: > 1000 nM

## COc1ccc(C(=O)/C=C/c2ccc(OCc3ccc(CNC(=O)C(C)(C)NCc4cc(Cl)c(OCc5cccc(-c6ccccc6)c5C)cc4OCc4cccc(C#N)c4)cc3)c(OC)c2)cc1 [CP10]
PD-1/PD-L1 interaction
  IC50: > 1000 nM

## COc1ccc(C(=O)/C=C/c2ccc(OCc3ccc(CNC(=O)CCNC(=O)C(C)(C)NCc4cc(Cl)c(OCc5cccc(-c6ccccc6)c5C)cc4OCc4cccc(C#N)c4)cc3)c(OC)c2)cc1 [CP11]
PD-1/PD-L1 interaction
  IC50: 870 nM

## COc1ccc(C(=O)/C=C/c2ccc(OCc3ccc(CNC(=O)CCCNC(=O)C4CCCCN4Cc4cc(Cl)c(OCc5cccc(-c6ccccc6)c5C)cc4OCc4ccc(OC(F)(F)F)cc4)cc3)c(OC)c2)cc1 (centres unmarked) [CP8]
PD-1/PD-L1 interaction
  IC50: > 1000 nM

## COc1ccc(C(=O)/C=C/c2ccc(OCc3ccc(CNC(=O)CCCCNC(=O)C(C)(C)NCc4cc(Cl)c(OCc5cccc(-c6ccccc6)c5C)cc4OCc4cccc(C#N)c4)cc3)c(OC)c2)cc1 [CP12]
PD-1/PD-L1 interaction
  IC50: > 1000 nM

## COc1ccc(C(=O)/C=C/c2ccc(OCc3ccc(CNC(=O)C4CCN(C(=O)C5CCCCN5Cc5cc(Cl)c(OCc6cccc(-c7ccccc7)c6C)cc5OCc5cccc(C#N)c5)CC4)cc3)c(OC)c2)cc1 (centres unmarked) [CP21]
[1]
  CXCL12-induced calcium responses: dose-dependently inhibited
[2]
  Hepatotoxicity and nephrotoxicity (serum biochemistry): did not induce hepatotoxicity and nephrotoxicity
Human CXCL12
  Kd: 160 nM
[3]
  Morphological aberration of organs (H&E staining): no apparent morphological aberration
[4]
  CXCL12-mediated cell migration: dose-dependently inhibited
[5]
  In vivo antitumor efficacy: similarly high in vivo antitumor efficacy
B16-F10 melanoma tumors
  Body weights of mice during treatment: did not change markedly
B16-F10 melanoma tumors; 75 and 125 mg/kg
  Tumor weights and volumes: dose-dependently decreased
B16-F10 melanoma tumors; oral 125 mg/kg
  Tumor growth inhibition (TGI): 58.5%
[6]
  Cardiotoxicity (creatine kinase isoenzyme assay): did not cause cardiotoxicity
[7]; P.O. 18 mg/kg, mean ± SD
  CL: 2347 ± 83.3 mL/min/kg
  Vz: 467.4 ± 184.8 L/kg
[7]; rat, plasma, iv, I.V. 1 mg/kg
  Tmax: 0.083 h
[7]; [9]
  AUC(0-inf): 2138 ± 18.3 ng·h/mL
  AUC(0-t): 2032 ± 11.4 ng·h/mL
  Cmax: 326 ± 58.1 ng/mL
  clearance: 8.33 mL/min/kg
  half-life: 12.4 ± 0.3 h
  MRT last: 11.3 ± 0.4 h
  MRT inf: 14 ± 0.5 h
[7]; rat, plasma, iv, I.V. 1 mg/kg, mean ± SD, read-out: Vz
  Vd: 8.4 ± 0.2 L/kg
[7]; [10]
  AUC(0-inf): 128 ± 4.6 ng·h/mL
  AUC(0-t): 128 ± 4.8 ng·h/mL
  Cmax: 20.5 ± 3.1 ng/mL
  Tmax: 6.3 ± 0.8 h
  half-life: 2.2 ± 0.8 h
  MRT last: 5.9 ± 0.2 h
  MRT inf: 6 ± 0.2 h
Murine CXCL12
  Kd: 76.5 nM
[8]
  Death of HepG2 cells: dose-dependently promoted

## COc1ccc(C(=O)/C=C/c2ccc(OCc3ccc(CNC(=O)C4CCN(C(=O)C5CCCCN5Cc5cc(Cl)c(OCc6cccc(-c7ccccc7)c6C)cc5OCc5ccc(OC(F)(F)F)cc5)CC4)cc3)c(OC)c2)cc1 (centres unmarked) [CP7]
PD-1/PD-L1 interaction
  IC50: > 1000 nM

## COc1ccc(C(=O)/C=C/c2ccc(OCc3ccc(CNC(=O)C4CCCCN4Cc4ccc(OCc5cccc(-c6ccccc6)c5C)c(Br)c4)cc3)c(OC)c2)cc1 (centres unmarked) [CP2]
other
  melting point: 124.8 to 125.9 °C
PD-1/PD-L1 interaction
  IC50: > 1000 nM

## CCOC(=O)COc1cc(OCc2cccc(-c3ccccc3)c2C)c(Cl)cc1CN1CCCCC1C(=O)NCCCC(=O)NCc1ccc(COc2ccc(/C=C/C(=O)c3ccc(OC)cc3)cc2OC)cc1 (centres unmarked) [CP16]
PD-1/PD-L1 interaction
  IC50: > 1000 nM

## COc1ccc(C(=O)/C=C/c2ccc(OCc3ccc(CNC(=O)CCCNC(=O)C4CCCCN4Cc4ccc(OCc5cccc(-c6ccccc6)c5C)c(Br)c4)cc3)c(OC)c2)cc1 (centres unmarked) [CP4]
PD-1/PD-L1 interaction
  IC50: > 1000 nM

## COc1ccc(C(=O)/C=C/c2ccc(OCc3ccc(CNC(=O)C4CCCCN4Cc4cc(Cl)c(OCc5cccc(-c6ccccc6)c5C)cc4OCc4ccc(OC(F)(F)F)cc4)cc3)c(OC)c2)cc1 (centres unmarked) [CP6]
PD-1/PD-L1 interaction
  IC50: > 1000 nM

## COc1ccc(C(=O)/C=C/c2ccc(OCc3ccc(CNC(=O)CCCNC(=O)C4CCCCN4Cc4cc(Cl)c(OCc5cccc(-c6ccccc6)c5C)cc4OCc4cccc(C#N)c4)cc3)c(OC)c2)cc1 (centres unmarked) [CP18]
other
  melting point: 120.1 to 120.9 °C
PD-1/PD-L1 interaction
  IC50: 107 nM

## COc1ccc(C(=O)/C=C/c2ccc(OCc3ccc(CNC(=O)CCNC(=O)C4CCCCN4Cc4ccc(OCc5cccc(-c6ccccc6)c5C)c(Br)c4)cc3)c(OC)c2)cc1 (centres unmarked) [CP5]
PD-1/PD-L1 interaction
  IC50: > 1000 nM

## COc1ccc(C(=O)/C=C/c2ccc(OCc3ccc(CNC(=O)CCCCNC(=O)C4CCCCN4Cc4ccc(OCc5cccc(-c6ccccc6)c5C)c(Br)c4)cc3)c(OC)c2)cc1 (centres unmarked) [CP1]
PD-1/PD-L1 interaction
  IC50: > 1000 nM

## CCOC(=O)COc1cc(OCc2cccc(-c3ccccc3)c2C)c(Cl)cc1CN1CCCCC1C(=O)NCCC(=O)NCc1ccc(COc2ccc(/C=C/C(=O)c3ccc(OC)cc3)cc2OC)cc1 (centres unmarked) [CP13]
PD-1/PD-L1 interaction
  IC50: > 1000 nM

Reference: article PMC9974934, “Bifunctional small molecules targeting PD-L1/CXCL12 as dual immunotherapy for cancer treatment” (Signal Transduction and Targeted Therapy, 2023)
